Some test systems named below: OVCAR-3 ovarian; MDA-MB-435; RXF 393 renal; SK-MEL-28 melanoma; DU-145 prostate; SNB-75 CNS; EKVX NSCLC; HT29 colon; MALME-3M melanoma; KM12 colon.
What all share (test): NCI anticancer screen, dose series, 48 h

“And” between values parts separate entries of the source, which are not always exact repeats. Equal entries are not always repeated.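 In this assay, cells in 96-well plates receive the compound at five concentrations for 48 hours. Endpoints are linearly interpolated between the surrounding concentrations. GI50 is the concentration that inhibits growth by half. TGI is the concentration that stops growth completely.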

Turning to `[N-]=[N+]=NC1=NNC2(C(=O)N1)c1ccccc1-c1ccccc12`, the TGI in the assay on OVCAR-3 ovarian is more than 100 µM; in the assay with MDA-MB-435 it was 33.1 µM; in the assay on RXF 393 renal it was more than 100 µM; in the assay with SK-MEL-28 melanoma, more than 100 µM; in the assay with DU-145 prostate it was more than 100 µM; with SNB-75 CNS, more than 100 µM. Further, the figures for the TGI in the assay on EKVX NSCLC, with HT29 colon and in the assay on MALME-3M melanoma were more than 100 µM, more than 100 µM and 33.3 µM, respectively.
On to `C=C1C(=O)O[C@@H]2C1C[C@@H](O)/C(C)=C/C/C=C(\C)CCC[C@H](C)[C@H]2OC(C)=O` (some centres not stated), for which the GI50 in the assay with OVCAR-3 ovarian was 21.4 µM; in the assay with MDA-MB-435, 24400 nM; in the assay with RXF 393 renal it was 19300 nM; with SK-MEL-28 melanoma, 34.5 µM; with DU-145 prostate it was 20.4 µM; in the assay on SNB-75 CNS, 38.6 µM. Moreover, the GI50 in the assay on EKVX NSCLC was 23.8 µM; with KM12 colon, 20.8 µM; in the assay on HT29 colon, 40 µM. The TGI in the assay with OVCAR-3 ovarian is 42.7 µM; in the assay on MDA-MB-435, 58 µM; with RXF 393 renal it was 50.2 µM; in the assay with SK-MEL-28 melanoma, more than 100 µM; in the assay on DU-145 prostate, 45.4 µM; with SNB-75 CNS, more than 100 µM. In addition, the TGI was 59.1 µM in the assay with EKVX NSCLC, 41.7 µM in the assay on KM12 colon and more than 100 µM in the assay on HT29 colon.
As to `NCCCC(=O)Nc1ccncc1`, the GI50 in the assay with OVCAR-3 ovarian was more than 100 µM; in the assay with MDA-MB-435, more than 100000 nM; with SK-MEL-28 melanoma, more than 100 µM; with DU-145 prostate it was more than 100 µM; with SNB-75 CNS, 60 µM; with EKVX NSCLC, more than 100 µM. The GI50 in the assay with KM12 colon, in the assay on HT29 colon and with MALME-3M melanoma was more than 100 µM throughout. Also, the TGI in the assay on OVCAR-3 ovarian, with MDA-MB-435, in the assay with SK-MEL-28 melanoma, with DU-145 prostate, with SNB-75 CNS and in the assay on EKVX NSCLC was more than 100 µM each time. In addition, the TGI with KM12 colon, in the assay on HT29 colon and in the assay with MALME-3M melanoma was more than 100 µM throughout.
Regarding `COc1ccc(/C=C\c2cc(OC)c(OC)c(OC)c2)cc1OC(=O)C(N)CCC(=O)O` (configuration not stated), the GI50 in the assay with OVCAR-3 ovarian was 0.000393 µM; in the assay with MDA-MB-435, 0.169 nM and 0.049 nM; in the assay with RXF 393 renal, 0.0467 nM; in the assay on DU-145 prostate, 0.000364 µM and 0.000444 µM and < 0.0001 µM; in the assay on KM12 colon, 0.00156 µM; in the assay on MALME-3M melanoma it was 0.00136 µM. Besides, the TGI in the assay on MDA-MB-435 was 0.000799 µM and 0.000118 µM; in the assay with SK-MEL-28 melanoma, more than 59 µM; in the assay on EKVX NSCLC, more than 100 µM; in the assay with KM12 colon, 0.0073 µM; in the assay with HT29 colon, > 37.9 µM and 46.2 µM.
With `COc1ccc2c(c1)nc(N)c1c3cc(OC)c(OC)cc3cn21`, the GI50 with MDA-MB-435 was less than 10 nM; with EKVX NSCLC it was 1.81 µM; with KM12 colon, 0.014 µM; in the assay with MALME-3M melanoma, 9.39 µM. In addition, the TGI was found to be 19.9 µM in the assay with SK-MEL-28 melanoma; 8.63 µM in the assay with DU-145 prostate; 22.6 µM with SNB-75 CNS; 22 µM in the assay on EKVX NSCLC; 12.7 µM in the assay with KM12 colon; 11.2 µM with HT29 colon. The molecule also returned a TGI in the assay with MALME-3M melanoma of 37.7 µM.
For `N#CC1=C(N)OC2=C(COc3ccc(F)cc32)C1c1ccc(Cl)cc1` (configuration not stated), the GI50 is 17.2 µM in the assay on OVCAR-3 ovarian; 28500 nM in the assay on MDA-MB-435; more than 100000 nM with RXF 393 renal; 44.1 µM in the assay with DU-145 prostate; more than 100 µM with SNB-75 CNS; 37.3 µM in the assay on EKVX NSCLC. In addition, the GI50 in the assay with KM12 colon was 33.4 µM; in the assay on HT29 colon it was 50.4 µM; in the assay with MALME-3M melanoma, 47.9 µM. The TGI in the assay with OVCAR-3 ovarian is 42.3 µM; in the assay with MDA-MB-435, more than 100 µM; in the assay with RXF 393 renal, more than 100 µM; in the assay on DU-145 prostate, more than 100 µM; in the assay with SNB-75 CNS it was more than 100 µM; in the assay with EKVX NSCLC, more than 100 µM. Moreover, the figures for the TGI in the assay with KM12 colon, in the assay with HT29 colon and in the assay with MALME-3M melanoma were more than 100 µM, more than 100 µM and 94.9 µM, respectively.
Turning to `COc1ccccc1C1=C2C(=O)N(C)C(c3ccccc3OC)=C2C(=O)N1C`, the TGI in the assay with OVCAR-3 ovarian, in the assay on MDA-MB-435, in the assay on SK-MEL-28 melanoma, in the assay with DU-145 prostate, in the assay on EKVX NSCLC and with KM12 colon was more than 100 µM throughout. For the same molecule, the TGI in the assay on HT29 colon and with MALME-3M melanoma was more than 100 µM in each case.
Take `Nc1nc2cc(CNc3ccc(C(=O)O)cc3)ccc2nc1-c1ccccc1`: the TGI in the assay on OVCAR-3 ovarian, with MDA-MB-435, with RXF 393 renal, in the assay on SK-MEL-28 melanoma, with DU-145 prostate and in the assay on SNB-75 CNS was more than 100 µM in each case. For the same molecule, the TGI with HT29 colon and with MALME-3M melanoma was more than 100 µM throughout.
Turning to `O=C(Nc1ccc(-n2cc(-c3ccncc3)c(-c3ccc(Cl)c(O)c3)n2)cc1)Nc1cc(C(F)(F)F)cc(C(F)(F)F)c1`, the GI50 is 1.52 µM in the assay with OVCAR-3 ovarian; 1770 nM in the assay on MDA-MB-435; 1450 nM with RXF 393 renal; 2.01 µM with SK-MEL-28 melanoma; 1.78 µM with DU-145 prostate; 1.18 µM with SNB-75 CNS. In addition, the GI50 in the assay on EKVX NSCLC was 1.97 µM; in the assay with KM12 colon it was 1.6 µM; in the assay on HT29 colon it was 1.95 µM. In addition, the TGI in the assay with OVCAR-3 ovarian was 2.89 µM; with MDA-MB-435, 3.45 µM; in the assay with RXF 393 renal, 3.45 µM; with SK-MEL-28 melanoma, 4.34 µM; in the assay with DU-145 prostate it was 3.34 µM; in the assay with SNB-75 CNS, 3.88 µM. The TGI worked out at 5.51 µM in the assay on EKVX NSCLC, 3.15 µM in the assay with KM12 colon and 3.74 µM in the assay with HT29 colon.
In the case of `Nc1ccc(C(=O)c2ccc(N)c(Br)c2)cc1Br`, the GI50 is 0.234 µM in the assay on OVCAR-3 ovarian; 207 nM with MDA-MB-435; 279 nM in the assay on RXF 393 renal; 1.09 µM in the assay on SK-MEL-28 melanoma; 0.334 µM in the assay with DU-145 prostate; 0.291 µM in the assay with SNB-75 CNS. Moreover, the results for the GI50 in the assay on EKVX NSCLC, in the assay on KM12 colon and in the assay on HT29 colon were 0.536 µM, 0.409 µM and 0.335 µM, respectively. The TGI with OVCAR-3 ovarian is 0.517 µM; in the assay on MDA-MB-435, 0.49 µM; in the assay on RXF 393 renal, 0.882 µM; in the assay on SK-MEL-28 melanoma it was more than 100 µM; with DU-145 prostate, 1.58 µM; with SNB-75 CNS, 13.4 µM. Besides, the TGI is more than 100 µM with EKVX NSCLC, 12.8 µM with KM12 colon and 1.18 µM in the assay on HT29 colon.

These data come from PubChem BioAssay (NCI).
